# Key:
# OX2 = target: T1, OX2 (Homo sapiens, UniProt O43614); test: Orexin receptor cell-based functional assay, [Ca2+]i by FLIPR, CHO-OX2 cells; conditions: FLIPR calcium, antagonism of EC90 of [OX]
# T1 construct: expressed in transfected cells; host or cells: CHO (CHO-OX2)
# T1 sequence (O43614 1-444): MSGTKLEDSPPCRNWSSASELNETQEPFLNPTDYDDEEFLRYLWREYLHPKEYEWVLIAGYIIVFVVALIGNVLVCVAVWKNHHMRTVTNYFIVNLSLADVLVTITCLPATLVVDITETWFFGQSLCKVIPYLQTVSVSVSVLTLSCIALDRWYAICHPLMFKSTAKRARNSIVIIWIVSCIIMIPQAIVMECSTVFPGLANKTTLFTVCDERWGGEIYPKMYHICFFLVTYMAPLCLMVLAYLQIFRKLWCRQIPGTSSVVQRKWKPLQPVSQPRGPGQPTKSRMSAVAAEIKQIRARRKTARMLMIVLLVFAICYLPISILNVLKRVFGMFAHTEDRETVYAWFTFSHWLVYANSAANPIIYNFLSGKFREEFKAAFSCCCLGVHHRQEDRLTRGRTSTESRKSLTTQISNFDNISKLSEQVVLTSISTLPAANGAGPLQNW
# Experimental: (§1) Measurement of [Ca^2+]i using a FLIPR: CHO-OX1 or CHO-OX2 cells were seeded into black-walled clear-base 384-well plates (Corning, catalog #3712) at a density of 20,000 cells per well in F12-K medium supplemented with 10% FBS and then incubated in a 5% CO2, 37° C. incubator overnight to reach 90% confluency. The cells were incubated with equal volume of calcium6 loading buffer (Molecular Devices, Inc.) containing 2.5 mM probenecid at 37° C. for 2 h, followed by test compounds (dose-range 0.1 nM-10 μM) for another 30 min. The plates were then placed into a FLIPR (Molecular Devices, Inc.) to monitor fluorescence (λ excitation 488 nm, λ emission 540 nm) before and after the addition of EC90 of [OX]. Results for exemplary compounds of Formulae (I), (Ia), (Ib), (II), (IIa), (III), (IIIa), (IV), (IVa), (V), or (Va) are shown in Table 3.
# OX1 = target: T2, OX1 (Homo sapiens, UniProt O43613); test: Orexin receptor cell-based functional assay, [Ca2+]i by FLIPR, CHO-OX1 cells; conditions: FLIPR calcium, antagonism of EC90 of [OX], read-out: OXI, IC50
# T2 construct: expressed in transfected cells; host or cells: CHO (CHO-OX1)
# T2 sequence (O43613 1-425): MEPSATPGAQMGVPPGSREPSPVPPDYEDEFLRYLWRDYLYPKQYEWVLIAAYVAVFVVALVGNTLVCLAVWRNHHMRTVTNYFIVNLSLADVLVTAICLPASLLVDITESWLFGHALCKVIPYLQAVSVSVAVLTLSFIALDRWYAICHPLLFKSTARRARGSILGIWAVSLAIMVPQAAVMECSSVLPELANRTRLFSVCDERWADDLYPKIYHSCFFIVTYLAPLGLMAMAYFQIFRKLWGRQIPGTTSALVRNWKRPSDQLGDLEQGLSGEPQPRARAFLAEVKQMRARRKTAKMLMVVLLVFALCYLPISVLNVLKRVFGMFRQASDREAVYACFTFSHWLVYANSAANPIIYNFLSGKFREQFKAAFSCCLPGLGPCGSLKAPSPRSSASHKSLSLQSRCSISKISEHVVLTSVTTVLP
# Experimental: as §1, with “[OX].” for “[OX]. Results for exemplary compounds of Formulae (I), (Ia), (Ib), (II), (IIa), (III), (IIIa), (IV), (IVa), (V), or (Va) are shown in Table 3.”
SMILES,IC50 (OX2) [µM],IC50 (OX1) [µM]
Cc1nc(C(=O)N2CC(F)(F)C[C@@H](C)[C@H]2CNc2ncc(C(F)(F)F)cn2)c(-c2ccc(F)cc2)o1 [Compound 84],> 5,0.13
COc1cccc(-c2cn(C)nc2C(=O)N2CC(F)(F)C[C@@H](C)[C@H]2CNc2cnc(C(F)(F)F)cn2)n1 [Compound 136],> 5,0.04
Cc1ccc(-c2ccccc2)c(C(=O)N2CC(F)(F)C[C@@H](C)[C@H]2CNc2ncc(C(F)(F)F)cn2)n1 [Compound 51],> 5,0.004
"Cc1ccc(-n2nccn2)c(C(=O)N2CC(F)(F)C[C@@H](C)[C@H]2COc2ccc(C(F)(F)F)cn2)n1 [Compound 204, ((2S,3R)-5,5-difluoro-3-methyl-2-(((5-(trifluoromethyl)pyridin-2-yl)oxy)methyl)piperidin-1-yl)(6-methyl-3-(2H-1,2,3-triazol-2-yl)pyridin-2-yl)methanone]",> 5,0.04
C[C@@H]1CC(F)(F)CN(C(=O)c2cn(C)nc2-c2ccccc2)[C@@H]1COc1ncc(C(F)(F)F)cn1 [Compound 209],> 5,0.28
"Cc1ccc(-c2ncccn2)c(C(=O)N2CC(F)(F)C[C@@H](C)[C@H]2CNc2ccc(C(F)(F)F)cn2)n1 [Compound 183, ((2S,3R)-5,5-difluoro-3-methyl-2-(((5-(trifluoromethyl)pyridin-2-yl)amino)methyl)piperidin-1-yl)(6-methyl-3-(pyrimidin-2-yl)pyridin-2-yl)methanone]",> 5,0.012
C[C@@H]1CC(F)(F)CN(C(=O)c2nn(C)cc2-c2ncccn2)[C@@H]1COc1ncc(C(F)(F)F)cc1F [Compound 247],> 5,0.437
C[C@@H]1CC(F)(F)CN(C(=O)c2cc(C#N)ccc2-n2nccn2)[C@@H]1CNc1ncc(Cl)cn1 [Compound 15],> 5,0.046
"C[C@@H]1CC(F)(F)CN(C(=O)c2nn(C)cc2-c2ccccc2)[C@@H]1CNc1cnc(C(F)(F)F)cn1 [Compound 120, ((2S,3R)-5,5-difluoro-3-methyl-2-(((5-(trifluoromethyl)pyrazin-2-yl)amino)methyl)piperidin-1-yl)(1-methyl-4-phenyl-1H-pyrazol-3-yl)methanone]",> 5,0.002
Cc1cccc(-c2cn(C)nc2C(=O)N2CC(F)(F)C[C@@H](C)[C@H]2CNc2ncc(C(F)(F)F)cn2)c1 [Compound 26],> 5,0.004
"C[C@@H]1CC(F)(F)CN(C(=O)c2nn(C)cc2-c2ccncn2)[C@@H]1CNc1ncc(C(F)(F)F)cn1 [Compound 241, ((2S,3R)-5,5-difluoro-3-methyl-2-(((5-(trifluoromethyl)pyrimidin-2-yl)amino)methyl)piperidin-1-yl)(1-methyl-4-(pyrimidin-4-yl)-1H-pyrazol-3-yl)methanone]",> 5,> 1
"Cc1ccc(-c2ncccn2)c(C(=O)N2CC(F)(F)C[C@@H](C)[C@H]2COc2ccc(C(F)(F)F)cn2)n1 [Compound 215, ((2S,3R)-5,5-difluoro-3-methyl-2-(((5-(trifluoromethyl)pyridin-2-yl)oxy)methyl)piperidin-1-yl)(6-methyl-3-(pyrimidin-2-yl)pyridin-2-yl)methanone]",> 5,0.005
C[C@@H]1CC(F)(F)CN(C(=O)c2cc(Cl)ccc2-c2nnn(C)n2)[C@@H]1CNc1ccc(C(F)(F)F)cn1 [Compound 182],–,0.017
Cc1ccc(-n2nccn2)c(C(=O)N2CC(F)(F)C[C@@H](C)[C@H]2CNc2ncc(Cl)cn2)c1 [Compound 6],> 5,0.008
Cc1nc(-c2ccccc2)c(C(=O)N2CC(F)(F)C[C@@H](C)[C@H]2CNc2ncc(C(F)(F)F)cn2)s1 [Compound 48],> 5,0.607
"C[C@@H]1CC(F)(F)CN(C(=O)c2cc(F)ccc2-n2nccn2)[C@@H]1CNc1ncc(C(F)(F)F)cn1 [Compound 1, ((2S,3R)-5,5-difluoro-3-methyl-2-(((5-(trifluoromethyl)pyrimidin-2-yl)amino)methyl)piperidin-1-yl)(5-fluoro-2-(2H-1,2,3-triazol-2-yl)phenyl)methanone]",> 5,0.192

SMILES,IC50 (OX2) [µM],IC50 (OX1) [µM]
COc1cccc(-c2sc(C)nc2C(=O)N2CC(F)(F)C[C@@H](C)[C@H]2CNc2cnc(C(F)(F)F)cn2)c1 [Compound 142],> 5,0.004
Cc1cc(C(=O)N2CC(F)(F)C[C@@H](C)[C@H]2CNc2ncc(C(F)(F)F)cn2)c(-c2ccccn2)s1 [Compound 91],> 5,0.007
Cc1ccc(-c2sc(C)nc2C(=O)N2CC(F)(F)C[C@@H](C)[C@H]2CNc2cnc(C(F)(F)F)cn2)cc1 [Compound 138],> 5,0.006
"C[C@@H]1CC(F)(F)CN(C(=O)c2nn(C)cc2-c2ncccn2)[C@@H]1COc1cnc(C(F)(F)F)cn1 [Compound 223, ((2S,3R)-5,5-difluoro-3-methyl-2-(((5-(trifluoromethyl)pyrazin-2-yl)oxy)methyl)piperidin-1-yl)(1-methyl-4-(pyrimidin-2-yl)-1H-pyrazol-3-yl)methanone]",> 5,0.052
"C[C@@H]1CC(F)(F)CN(C(=O)c2nn(C)cc2-c2ncc(C(F)(F)F)cn2)[C@@H]1CNc1ncc(C(F)(F)F)cn1 [Compound 226, ((2S,3R)-5,5-difluoro-3-methyl-2-(((5-(trifluoromethyl)pyrimidin-2-yl)amino)methyl)piperidin-1-yl)(1-methyl-4-(5-(trifluoromethyl)pyrimidin-2-yl)-1H-pyrazol-3-yl)methanone]",> 5,0.35
"Cc1ccc(-c2cn(C)nc2C(=O)N2CC(F)(F)C[C@@H](C)[C@H]2COc2ccc(C(F)(F)F)cn2)nc1 [Compound 206, ((2S,3R)-5,5-difluoro-3-methyl-2-(((5-(trifluoromethyl)pyridin-2-yl)oxy)methyl)piperidin-1-yl)(1-methyl-4-(5-methylpyridin-2-yl)-1H-pyrazol-3-yl)methanone]",–,0.022
C[C@@H]1CC(F)(F)CN(C(=O)c2nn(C)cc2-c2ncc(F)cn2)[C@@H]1COc1cnc(C(F)(F)F)cn1 [Compound 244],> 5,–
Cc1ccc(-c2sc(C)nc2C(=O)N2CC(F)(F)C[C@@H](C)[C@H]2CNc2ccc(C(F)(F)F)cn2)nc1 [Compound 197],> 5,–
C[C@@H]1CC(F)(F)CN(C(=O)c2nn(C)cc2-c2ccccc2F)[C@@H]1CNc1ncc(C(F)(F)F)cn1 [Compound 23],> 5,–
Cc1nc(C(=O)N2CC(F)(F)C[C@@H](C)[C@H]2CNc2cnc(C(F)(F)F)cn2)c(-c2cc(F)ccn2)s1 [Compound 150],> 5,–
Cc1cccc(-c2sc(C)nc2C(=O)N2CC(F)(F)C[C@@H](C)[C@H]2CNc2ncc(C(F)(F)F)cn2)c1 [Compound 63],> 5,–
C[C@@H]1CC(F)(F)CN(C(=O)c2nn(C)cc2-c2ccc(F)cc2)[C@@H]1CNc1ncc(C(F)(F)F)cn1 [Compound 30],> 5,–
Cc1nc(C(=O)N2CC(F)(F)C[C@@H](C)[C@H]2CNc2cnc(C(F)(F)F)cn2)c(-c2ccc(F)cc2)s1 [Compound 137],–,0.005
COc1ccc(-c2sc(C)nc2C(=O)N2CC(F)(F)C[C@@H](C)[C@H]2CNc2cnc(C(F)(F)F)cn2)cc1 [Compound 141],–,0.006
C[C@@H]1CC(F)(F)CN(C(=O)c2nn(C)cc2-c2ncc(F)cn2)[C@@H]1COc1ncc(C(F)(F)F)cc1F [Compound 245],> 5,–

# — patent US12084437B2, “Halo-substituted piperidines as orexin receptor modulators” (AstraZeneca AB, priority 2016, dated 2024)
